Several values for one entry are separate records, joined by “and”; a condition that tells them apart may be missing. Identical values can stand only once.
Key:
microglia = assay: acetyl-CoA level in primary cells (assay kit); assay type: cell-based, C57BL/6 mice; conditions: Ab 10mM, replicates
Protocol: To confirm the generation and roles of N-AS in neurons, cells from E18 C57BL/6 mice were prepared as previously described. Cortices were dissected and then dissociated followed by incubation in papain (Worthington) at 37 °C for 15 min. Neurons were plated on poly-L-lysine-coated coverslips with neuronal culture medium, serum-free Neurobasal medium (Gibco) containing 2% B27 supplements (Gibco), 1 mM Glutamax supplement (Gibco), and 100 U ml^−1 streptomycin/ 100 U ml^−1 penicillin (Gibco) at 37 °C in a humidified atmosphere of 5% CO2. Aβ 1–42 (10 μM, 24 h, Invitrogen, 03112) was exposed to neurons and the cells were analyzed for the generation and roles of N-AS. Primary astrocyte cultures were prepared from C57BL/6 mice as described previously. In brief, after removal of the meninges, postnatal day 7 (P7) mouse brain tissues were minced and incubated in a rocking water bath at 37 °C for 30 min in the presence of 0.25% trypsin-EDTA (Sigma-Aldrich). Enzyme-digested dissociated cells were triturated with astrocyte-specific medium (DMEM/F12 containing 10% FBS and 1% penicillin-streptomycin) and centrifuged at 155×g for 8 min. […] The human microglia treated with Aβ 1–42 and/or zileuton was incubated with N-AS (2.5 μM, 2 h, Sigma-Aldrich, 01912), and were analyzed for the generation and roles of N-AS. […]

APP/PS1 mice = assay: fear conditioning (Supplementary Fig 7e); assay type: in vivo, mouse; conditions: N-AS vs vehicle APP/PS1
Protocol: Transgenic mouse lines over-expressing the hAPP695swe (APP) and presenilin-1M146V (PS1) mutations were originated from GlaxoSmithKline (Harlow, UK)[32] and maintained as described previously. We purchased 5×FAD mice from Jackson Labs (Stock number. 34840-JAX). Because APP/PS1 and 5xFAD mice show sex differences in disease progression, we used only male mice. To examine possible therapeutic effect of N-AS and aspirin in APP/PS1 mice, the N-AS (30 mg kg^−1, Sigma-Aldrich, 01912) was injected daily s.c. for 8 weeks to 7-months-old APP/PS1 mice until the age of 9 months, and aspirin (2 mg kg^−1, Sigma-Aldrich, A5376)[33] was administrated orally to 7-months-old APP/PS1 mice for 8 weeks. […] Block randomization method was used to allocate the animals to experimental groups. To eliminate the bias, we were blinded in experimental progress such as data collection and data analysis. Mice were housed at temperature of 22 °C and a 12 h day/12 h night cycle with free access to tap water and food pellets. All protocols were approved by the Kyungpook National University Institutional Animal Care and Use Committee. […] Freezing was analyzed for 5 min. […] Overall activity in the box was measured, and the amount of time and distance traveled in the center arena was noted. […] The total number of transitions, latency to first enter the light chamber, distance traveled, and time spent in each chamber were recorded.

Compound	acetyl-CoA (Fig 3e) (microglia)	memory formation, fear conditioning (APP/PS1 mice)
Ab: Aβ 1–42 (Invitrogen, 03112) used to induce an AD environment in cells	0.5557 and 0.2327 and 0.5301 and 0.5514 and 0.536 and 0.6185	–
CCCCCCCCCCCCC/C=C/[C@@H](O)[C@H](CO)NC(C)=O [N-AS, N-((2S,3R,E)-1,3-Dihydroxyoctadec-4-en-2-yl)acetamide]	–	largely protected from this defect

From publication PMC7217877, “N-AS-triggered SPMs are direct regulators of microglia in a model of Alzheimer’s disease” (Nature Communications, 2020)
